# Laboratory results taken from US20250084080A1, “CRYSTALLINE AND SALT FORMS OF AN NLRP3 INHIBITOR” (BioAge Labs, Inc., priority 2023, published 2025).
# What was measured:
# Type in all cases: physicochemical
# [1] = Hygroscopicity by dynamic vapor sorption (DVS) at 25° C.; conditions: for Desorp. (%) / Sorp. (%): DVS 25° C.
# Procedure: Dynamic vapor sorption (DVS) was performed on an Intrinsic, Advantage or Adventure with an oven temperature of 25° C. using water as a solvent. The sample mass was about 5-10 mg using the following method: • Cycle: 40-0-95-0-40% RH • Stage Step: 10% • Equilibrium: 0.002 dm/dt (%/min) • Minimum dm/dt stability duration: 60 min • Maximum dm/dt stage time: 360 min. Hygroscopicity of free form Pattern B was evaluated by dynamic vapor sorption (DVS) test at 25° C. […] It absorbed about 0.8% water at 80% RH at 25° C.
# [2] = Bulk stability (solid state, 1 week; HPLC, XRPD, IC, color); parameters: key to CL (color): A: no change of color; B: slight discoloration; C: medium discoloration; D: strong discoloration; conditions: for Bulk (HPLC) Purity / Bulk (XRPD) / CL (color): Solid state
# Procedure: Bulk stability of free form Pattern B was evaluated at 25° C./92.5% RH in an open container, at 40° C./75% RH in an open container and at 60° C. in a tight container over 1 week.
# [3] = Solubility at 37° C. in buffers and biorelevant media, XRPD of residual solid; conditions: for solubility at 2 h / solubility at 24 h: thermodynamic from solid
# Procedure: Solubility of BAL-0748 free form Pattern B was investigated in pH 1.2 HCl buffer, pH 4.5 50 mM acetate buffer, pH 6.8 50 mM phosphate buffer, water, pH 1.6 FaSSGF, pH 6.5 FaSSIF-v1, pH 5.0 FeSSIF-v1 and 2% HPMC+1% Pluronic F68 in pH 4.5 50 mM acetate buffer at 37° C. for 2 h and 24 h. Residual solids after the solubility test were analyzed by XRPD.
# Solubility of the free form Pattern A, the HCl salt Pattern A, the phosphate salt Pattern A, and the sodium salt Pattern A was measured in pH 1.2 HCl buffer, pH 4.5 acetate buffer (50 mM), pH 6.8 phosphate buffer (50 mM), water, pH 1.6 FaSSGF, pH 6.5 FaSSIF-v1, pH 5.0 FeSSIF-v1, and 2% HPMC+1% Pluronic F68 in pH 4.5 acetate buffer (50 mM) at 37° C. for 2 hours and 24 hours.
# 10.4 mg of the free form Pattern A, 10.0 mg of the free form Pattern B, 10.8 mg of the HCl salt Pattern A, 12.2 mg of the phosphate salt Pattern A, or 10.5 mg of the sodium salt Pattern A was weighed into a 20 mL glass vial, respectively. 5 mL of solubility medium was added. The salt amount used was equivalent to 10 mg anhydrous free form. Obtained suspensions were stirred at 37° C. at 400 rpm and sampled at 2 hours and at 24 hours. The samples were centrifuged at 37° C. at 14,000 rpm for 5 min. Supernatants were analyzed by HPLC and PH meter for solubility and pH value, respectively. Residual solids (wet cakes) from the 24 hours samples were also characterized by XRPD to determine physical form.
# [4] = 25° C./92.5% RH open, 40° C./75% RH open, 60° C. tight container
# [5] = aqueous buffer, pH 4.5 acetate buffer (50 mM), 37° C.
# [6] = aqueous buffer, pH 6.8 phosphate buffer (50 mM), 37° C.
# [7] = aqueous with cosolvent or surfactant or cyclodextrin, 2% HPMC + 1% Pluronic F68 in pH 4.5 acetate buffer (50 mM), 37° C.
# [8] = fassgf or other biorelevant, FaSSGF, pH 1.6, 37° C.
# [9] = simulated gastric fluid, pH 1.2 HCl buffer, 37° C.
smiles,measurement,setting,value
"CCOc1cc(C(=O)N(C)Cc2cnc(CO)c3cn[nH]c23)ccc1-c1cc(F)cc(F)c1.O=P(O)(O)O [Phosphate salt Pattern A, 2-ethoxy-3′,5′-difluoro-N-((4-(hydroxymethyl)-1H-pyrazolo[4,3-c]pyridin-7-yl)methyl)-N-methyl-[1,1′-biphenyl]-4-carboxamide phosphoric acid salt]",Desorp. (%),"[1]; 0% RH, 1st desorption",0.03%
same,Sorp. (%),"[1]; 0% RH, 1st sorption",0.03%
same,Desorp. (%),"[1]; 0% RH, 2nd desorption",0.00%
same,Sorp. (%),"[1]; 0% RH, 2nd sorption",0.00%
same,Desorp. (%),"[1]; 10% RH, 1st desorption",0.12%
same,Sorp. (%),"[1]; 10% RH, 1st sorption",0.11%
same,Desorp. (%),"[1]; 10% RH, 2nd desorption",0.09%
same,Sorp. (%),"[1]; 10% RH, 2nd sorption",0.09%
same,Desorp. (%),"[1]; 20% RH, 1st desorption",0.16%
same,Sorp. (%),"[1]; 20% RH, 1st sorption",0.15%
same,Desorp. (%),"[1]; 20% RH, 2nd desorption",0.14%
same,Sorp. (%),"[1]; 20% RH, 2nd sorption",0.13%
same,Desorp. (%),"[1]; 30% RH, 1st desorption",0.20%
same,Sorp. (%),"[1]; 30% RH, 1st sorption",0.18%
same,Desorp. (%),"[1]; 30% RH, 2nd desorption",0.18%
same,Sorp. (%),"[1]; 30% RH, 2nd sorption",0.17%
same,Desorp. (%),"[1]; 40% RH, 1st desorption",0.24%
same,Sorp. (%),"[1]; 40% RH, 1st sorption",0.23%
same,Desorp. (%),"[1]; 40% RH, 2nd desorption",0.23%
same,Sorp. (%),"[1]; 40% RH, 2nd sorption",0.21%
same,Sorp. (%),"[1]; 50% RH, 1st sorption",0.27%
same,Desorp. (%),"[1]; 50% RH, 2nd desorption",0.29%
same,Sorp. (%),"[1]; 60% RH, 1st sorption",0.32%
same,Desorp. (%),"[1]; 60% RH, 2nd desorption",0.35%
same,Sorp. (%),"[1]; 70% RH, 1st sorption",0.37%
same,Desorp. (%),"[1]; 70% RH, 2nd desorption",0.41%
same,Sorp. (%),"[1]; 80% RH, 1st sorption",0.45%
same,Desorp. (%),"[1]; 80% RH, 2nd desorption",0.48%
same,Sorp. (%),"[1]; 90% RH, 1st sorption",0.61%
same,Desorp. (%),"[1]; 90% RH, 2nd desorption",0.63%
same,Sorp. (%),"[1]; 95% RH, 1st sorption",0.82%
same,Desorp. (%),"[1]; 95% RH, 2nd desorption",0.82%
same,XRPD after DVS test,[1]; DVS at 25° C.,No form change
same,Water absorbed at 80% RH,"[1]; DVS at 25° C., 80% RH",It absorbed 0.5%
same,"Bulk stability, chemical and physical",[2]; [4],chemically and physically stable
same,Degradation by HPLC,[2]; [4],no obvious degradation
same,Form change by XRPD,[2]; [4],no form change
same,Bulk (HPLC) Purity,"[2]; 25° C./92.5% RH, open",98.2%
same,Bulk (XRPD),"[2]; 25° C./92.5% RH, open",No form change
same,CL (color),"[2]; 25° C./92.5% RH, open",A
same,Bulk (HPLC) Purity,"[2]; 40° C./75% RH, open",98.2%
same,Bulk (XRPD),"[2]; 40° C./75% RH, open",No form change
same,CL (color),"[2]; 40° C./75% RH, open",A
same,Bulk (HPLC) Purity,"[2]; 60° C., closed",98.2%
same,Bulk (XRPD),"[2]; 60° C., closed",No form change
same,CL (color),"[2]; 60° C., closed",A
same,pH of supernatant at 24 h,"[3]; 2% HPMC + 1% Pluronic F68 in pH 4.5 acetate buffer (50 mM), 37° C.",(4.5)
same,Solubility compared with the free form Pattern A,[3]; 2% HPMC+1% Pluronic F68 in acetate buffer (pH 4.5),comparable solubility
same,pH of supernatant at 24 h,"[3]; FaSSGF, pH 1.6, 37° C.",(1.6)
same,pH of supernatant at 24 h,"[3]; FaSSIF-v1, pH 6.5, 37° C.",(6.2)
same,pH of supernatant at 24 h,"[3]; FeSSIF-v1, pH 5.0, 37° C.",(4.9)
same,pH of supernatant at 24 h,"[3]; Water, 37° C.",(2.6)
same,solubility at 2 h,[3]; [5],9.4 µg/mL
same,solubility at 24 h,[3]; [5],11.8 µg/mL
same,solubility at 2 h,[3]; [6],2.4 µg/mL
same,solubility at 24 h,[3]; [6],2.9 µg/mL
same,solubility at 2 h,[3]; [7],16.4 µg/mL
same,solubility at 24 h,[3]; [7],17.9 µg/mL
same,solubility at 2 h,[3]; [8],710 µg/mL
same,solubility at 24 h,[3]; [8],653 µg/mL
same,pH of supernatant at 24 h,"[3]; pH 1.2 HCl buffer, 37° C.",(1.2)
same,pH of supernatant at 24 h,"[3]; pH 4.5 acetate buffer (50 mM), 37° C.",(4.4)
same,pH of supernatant at 24 h,"[3]; pH 6.8 phosphate buffer (50 mM), 37° C.",(6.7)
same,Solubility compared with the free form Pattern A,[3]; pure water,obviously higher solubility
same,solubility at 2 h,[3]; [9],402 µg/mL
same,solubility at 24 h,[3]; [9],390 µg/mL
same,solubility at 2 h,"[3]; FaSSIF-v1, pH 6.5, 37° C.",8.4 µg/mL
same,solubility at 24 h,"[3]; FaSSIF-v1, pH 6.5, 37° C.",13.7 µg/mL
same,solubility at 2 h,"[3]; FeSSIF-v1, pH 5.0, 37° C.",140 µg/mL
same,solubility at 24 h,"[3]; FeSSIF-v1, pH 5.0, 37° C.",159 µg/mL
same,solubility at 2 h,"[3]; Water, 37° C.",384 µg/mL
same,solubility at 24 h,"[3]; Water, 37° C.",442 µg/mL
